Results: patent US20220202799A1, “PHARMACEUTICAL FORMULATIONS CONTAINING P2Y14 ANTAGONISTS” (priority 2019, published 2022)

Test system: rats
Assay: Safety of PPTN/SBECD formulations during continuous intravenous infusion
Format: in vivo
Details: male Sprague-Dawley rat; 72-hour intravenous infusion at 100 mg/kg
Experimental: The safety and pharmacokinetics of PPTN (KB-1801) in rats receiving continuous intravenous injections of SBECD-containing solutions were analyzed. Three cohorts of six male and six female rats each were given continuous intravenous infusion of PPTN (KB-1801) at 10 mg/kg/day, 30 mg/kg/day or 100 mg/kg/day in a dosing solution containing PPTN at 0.25 mg/mL, 0.75 mg/mL or 2.5 mg/mL and SBECD at about 3.8%. Dosing volume was 40 mIkg/day.

Compound: O=C(O)c1cc(-c2ccc(C3CCNCC3)cc2)c2ccc(-c3ccc(C(F)(F)F)cc3)cc2c1 [KB-1801, 4-[4-(piperidin-4-yl)phenyl]-7-[4-(trifluoromethyl)phenyl]-2-naphthoic acid]
- Mortality, animal 16003: NS: No Sample. Animal 16003 died shortly after the 24h timepoint according to CRL.
